pKi: −log10 of the molar value.

The assay deals with human orexin-2 receptor (Homo sapiens (Human), UniProt O43614). Kind of assay: Human orexin 2 receptor radioligand binding ([3H]-EMPA competition). As to conditions: HEK293 cells stably expressing human orexin-2 receptor; [3H]-EMPA 5 nM final; apparent Ki=IC50/(1+C/Kd), Kd=2 nM; read-out: OR 2 Ki.
Chain of human orexin-2 receptor (O43614 whole entry): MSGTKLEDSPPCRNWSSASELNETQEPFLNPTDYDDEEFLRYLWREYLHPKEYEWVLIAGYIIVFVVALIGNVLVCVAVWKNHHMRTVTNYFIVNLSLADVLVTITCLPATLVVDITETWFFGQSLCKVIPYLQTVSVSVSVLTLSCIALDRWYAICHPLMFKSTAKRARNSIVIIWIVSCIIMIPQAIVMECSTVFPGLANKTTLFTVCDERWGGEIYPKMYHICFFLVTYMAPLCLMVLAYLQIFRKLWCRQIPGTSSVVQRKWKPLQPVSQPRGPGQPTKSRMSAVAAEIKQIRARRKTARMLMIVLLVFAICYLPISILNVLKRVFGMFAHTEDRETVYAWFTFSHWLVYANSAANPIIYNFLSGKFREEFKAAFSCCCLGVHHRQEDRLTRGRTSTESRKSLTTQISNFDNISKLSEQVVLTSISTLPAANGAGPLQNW
As a reminder, the pKi is the negative decadic logarithm of the Ki, by convention in mol/L. For the molecule `Cc1nccc(N2CC3CN(C(=O)c4ccccc4-n4nccn4)CC3C2)n1` (stereo not shown) [Example 210, [5-(2-Methyl-pyrimidin-4-yl)-hexahydro-pyrrolo[3,4-c]pyrrol-2-yl]-(2-[1,2,3]triazol-2-yl-phenyl)-methanone], the pKi is 5.52. In the case of `Cc1cc(C)nc(N2CC3CN(C(=O)c4occc4C)CC3C2)n1` (stereo not shown) [Example 352, (5-(4,6-Dimethylpyrimidin-2-yl)hexahydropyrrolo[3,4-c]pyrrol-2(1H)-yl)(3-methylfuran-2-yl)methanone] it was 5.00. In the case of `Cc1ccc(-c2cc(F)ccc2C(=O)N2CC3CN(c4nc(C)cc(C)n4)CC3C2)nc1` (stereo not shown) [Example 248, (5-(4,6-dimethylpyrimidin-2-yl)hexahydropyrrolo[3,4-c]pyrrol-2(1H)-yl)(4-fluoro-2-(5-methylpyridin-2-yl)phenyl)methanone] it was 6.77. For the molecule `Cc1cc(C)nc(N2CC3CN(C(=O)c4ccc(F)c5ccccc45)CC3C2)n1` (stereo not shown) [Example 90, 2-(4,6-Dimethylpyrimidin-2-yl)-5-[(4-fluoronaphthalen-1-yl)carbonyl]octahydro-pyrrolo[3,4-c]pyrrole], the pKi is 7.42. For the molecule `CCOc1ccc2ccccc2c1C(=O)N1CC2CN(c3nccc(-c4ccccc4)n3)CC2C1` (stereo not shown) [Example 126, 2-[(2-Ethoxynaphthalen-1-yl)carbonyl]-5-(4-phenylpyrimidin-2-yl)octahydro pyrrolo[3,4-c]pyrrole], the pKi was 7.02. For `COc1ccc(-n2nccn2)c(C(=O)N2CC3CN(c4cnc5cc(F)c(F)cc5n4)CC3C2)c1` (stereo not shown) [Example 245, (5-(6,7-Difluoroquinoxalin-2-yl)hexahydropyrrolo[3,4-c]pyrrol-2(1H)-yl)(5-methoxy-2-(2H-1,2,3-triazol-2-yl)phenyl)methanone], the pKi is 7.24. As for `O=C(c1ccccc1-c1nnc[nH]1)N1CC2CN(c3nc4ccccc4o3)CC2C1` (stereo not shown) [Example 86, 2-[5-{[2-(4H-1,2,4-Triazol-3-yl)phenyl]carbonyl}hexahydropyrrolo[3,4-c]pyrrol-2(1H)-yl]-1,3-benzoxazole], the pKi is 6.59.

Consider `Cc1cc(C)nc(N2CC3CN(C(=O)c4ccnn4-c4ccccc4)CC3C2)n1` (stereo not shown) [Example 10, 2-(4,6-Dimethylpyrimidin-2-yl)-5-[(1-phenyl-1H-pyrazol-5-yl)carbonyl]octahydropyrrolo[3,4-c]pyrrole], for which the pKi is 6.77.

For the molecule `COc1cccc(OC)c1C(=O)N1CC2CN(c3nc4ccccc4o3)CC2C1` (stereo not shown) [Example 192, (5-Benzooxazol-2-yl-hexahydro-pyrrolo[3,4-c]pyrrol-2-yl)-(2,6-dimethoxy-phenyl)-methanone], the pKi was 5.99.

In the case of `O=C(c1cc(F)ccc1-c1ncccn1)N1CC2CN(c3nccc(-c4ccccc4)n3)CC2C1` (stereo not shown) [Example 113, 2-[(5-Fluoro-2-pyrimidin-2-ylphenyl)carbonyl]-5-(4-phenylpyrimidin-2-yl)octahydropyrrolo[3,4-c]pyrrole], the negative logarithm of the Ki (pKi) is 7.30.

As to `Cc1cc(C)nc(N2CC3CN(C(=O)c4ncccc4-c4ccccc4)CC3C2)n1` (stereo not shown) [Example 208, [5-(4,6-Dimethyl-pyrimidin-2-yl)-hexahydro-pyrrolo[3,4-c]pyrrol-2-yl]-(3-phenyl-pyridin-2-yl)-methanone], the pKi was 5.68. As to `CN(C)c1cc(N2CC3CN(C(=O)c4ccccc4-n4nccn4)CC3C2)nc(C(F)(F)F)n1` (stereo not shown) [Example 2, N,N-Dimethyl-6-[5-{[2-(2H-1,2,3-triazol-2-yl)phenyl]carbonyl}hexahydropyrrolo[3,4-c]pyrrol-2(1H)-yl]-2-(trifluoromethyl)pyrimidin-4-amine], the negative logarithm of the Ki (pKi) was 7.48. For `O=C(c1ccccc1-c1cccc(Cl)c1)N1CC2CN(c3cnc4ccccc4n3)CC2C1` (stereo not shown) [Example 41, 2-{5-[(3′-Chlorobiphenyl-2-yl)carbonyl]hexahydropyrrolo[3,4-c]pyrrol-2(1H)-yl}quinoxaline], the pKi was 6.45. As to `COc1cccc(OC)c1C(=O)N1CC2CN(c3ccc(C(F)(F)F)cn3)CC2C1` (stereo not shown) [Example 349, 2-[(2,6-Dimethoxyphenyl)carbonyl]-5-[5-(trifluoromethyl)pyridin-2-yl]octahydropyrrolo[3,4-c]pyrrole], the pKi was 5.00. In the case of `Cc1ccnc(-c2c(F)cccc2C(=O)N2CC3CN(c4nc(C)cc(C)n4)CC3C2)c1` (stereo not shown) [Example 373, (5-(4,6-Dimethylpyrimidin-2-yl)hexahydropyrrolo[3,4-c]pyrrol-2(1H)-yl)(3-fluoro-2-(4-methylpyridin-2-yl)phenyl)methanone], the pKi was 7.38.

As to `O=C(c1ccccc1-c1ccccc1)N1CC2CN(c3nc4ccccc4s3)CC2C1` (stereo not shown) [Example 169, 2-[5-(Biphenyl-2-ylcarbonyl)hexahydropyrrolo[3,4-c]pyrrol-2(1H)-yl]-1,3-benzothiazole], the pKi is 6.23. In the case of `N#Cc1ccccc1C(=O)N1CC2CN(c3cnc4ccccc4n3)CC2C1` (stereo not shown) [Example 26, 2-(5-Quinoxalin-2-yl-hexahydro-pyrrolo[3,4-c]pyrrole-2-carbonyl)-benzonitrile] it was 5.05; in that of `Cc1nc(N2CC3CN(C(=O)c4ncccc4-n4nccn4)CC3C2)nc(C)c1F` (stereo not shown) [Example 325, 2-(5-Fluoro-4,6-dimethylpyrimidin-2-yl)-5-{[3-(2H-1,2,3-triazol-2-yl)pyridin-2-yl]carbonyl}octahydropyrrolo[3,4-c]pyrrole], 7.80. As for `Cc1ccc(-n2nccn2)c(C(=O)N2CC3CN(c4cncc(C)n4)CC3C2)c1` (stereo not shown) [Example 100, 2-(6-Methylpyrazin-2-yl)-5-{[5-methyl-2-(2H-1,2,3-triazol-2 yl)phenyl]carbonyl}octahydropyrrolo[3,4-c]pyrrole], the pKi was 6.62. In the case of `Cc1cc(C)nc(N2CC3CN(C(=O)c4cnnc5ccccc45)CC3C2)n1` (stereo not shown) [Example 203, Cinnolin-4-yl-[5-(4,6-dimethyl-pyrimidin-2-yl)-hexahydro-pyrrolo[3,4-c]pyrrol-2-yl]-methanone] it was 5.30; in that of `O=C(c1ccccc1-n1cccn1)N1CC2CN(c3nccc(-c4ccccc4)n3)CC2C1` (stereo not shown) [Example 23, 2-(4-Phenylpyrimidin-2-yl)-5-{[2-(1H-pyrazol-1-yl)phenyl]carbonyl}octahydro-pyrrolo[3,4-c]pyrrole], 6.44. As for `O=C(c1ccccc1-c1cccs1)N1CC2CN(c3nccc(-c4ccco4)n3)CC2C1` (stereo not shown) [Example 34, 2-(4-Furan-2-ylpyrimidin-2-yl)-5-[(2-thiophen-2-ylphenyl)carbonyl]octahydro-pyrrolo[3,4-c]pyrrole], the pKi was 7.10. The same measure for `Cc1cc(C)nc(N2CC3CN(C(=O)c4cccc5c4OCCCO5)CC3C2)n1` (stereo not shown) [Example 334, (3,4-Dihydro-2H-benzo[b][1,4]dioxepin-6-yl)-[5-(4,6-dimethyl-pyrimidin-2-yl)-hexahydro-pyrrolo[3,4-c]pyrrol-2-yl]-methanone]: 6.56. As for `Cc1cc(C)nc(N2CC3CN(C(=O)c4c(F)cccc4F)CC3C2)n1` (stereo not shown) [Example 278, (2,6-Difluorophenyl)(5-(4,6-dimethylpyrimidin-2-yl)hexahydropyrrolo[3,4-c]pyrrol-2(1H)-yl)methanone], the pKi is 5.64. The same measure for `Cc1cc(C)nc(N2CC3CN(C(=O)c4ccc(F)cc4-c4ncco4)CC3C2)n1` (stereo not shown) [Example 369, (5-(4,6-Dimethylpyrimidin-2-yl)hexahydropyrrolo[3,4-c]pyrrol-2(1H)-yl)(4-fluoro-2-(oxazol-2-yl)phenyl)methanone]: 7.72; for `O=C(c1ccccc1-c1nnc[nH]1)N1CC2CN(c3cnc4ccccc4n3)CC2C1` (stereo not shown) [Example 85, 2-[5-{[2-(4H-1,2,4-Triazol-3-yl)phenyl]carbonyl}hexahydropyrrolo[3,4-c]pyrrol-2(1H)-yl]quinoxaline]: 7.01; for `Cc1cc(C)nc(N2CC3CN(C(=O)c4ccccc4C(C)C)CC3C2)n1` (stereo not shown) [Example 91, 2-(4,6-Dimethylpyrimidin-2-yl)-5-{[2-(1-methylethyl)phenyl]carbonyl}octahydro-pyrrolo[3,4-c]pyrrole]: 6.27.

`COc1cc(OC)nc(N2CC3CN(C(=O)c4c(F)cccc4-c4ncccn4)CC3C2)n1` (stereo not shown) [Example 68, 2-(4,6-Dimethoxypyrimidin-2-yl)-5-[(2-fluoro-6-pyrimidin-2-ylphenyl)carbonyl]octahydropyrrolo[3,4-c]pyrrole]: the pKi was 7.89. The same measure for `Cc1cc(C)nc(N2CC3CN(C(=O)c4ccccc4-c4ccccn4)CC3C2)n1` (stereo not shown) [Example 69, 2-(4,6-Dimethylpyrimidin-2-yl)-5-[(2-pyridin-2-ylphenyl)carbonyl]octahydro-pyrrolo[3,4-c]pyrrole]: 7.77. The same measure for `Cc1cc(N(C)C)nc(N2CC3CN(C(=O)c4cc(F)ccc4-n4nccn4)CC3C2)n1` (stereo not shown) [Example 124, 2-[5-{[5-Fluoro-2-(2H-1,2,3-triazol-2-yl)phenyl]carbonyl}hexahydropyrrolo[3,4-c]pyrrol-2(1H)-yl]-N,N,6-trimethylpyrimidin-4-amine]: 6.37; for `Cc1cc(C)nc(N2CC3CN(C(=O)c4cc(F)ccc4-c4ncco4)CC3C2)n1` (stereo not shown) [Example 404, (5-(4,6-Dimethylpyrimidin-2-yl)hexahydropyrrolo[3,4-c]pyrrol-2(1H)-yl)(5-fluoro-2-(oxazol-2-yl)phenyl)methanone]: 7.72. Take `CCOc1ccc2ccccc2c1C(=O)N1CC2CN(c3cnc4ccccc4n3)CC2C1` (stereo not shown) [Example 145, 2-{5-[(2-Ethoxynaphthalen-1-yl)carbonyl]hexahydropyrrolo[3,4-c]pyrrol-2(1H)-yl}quinoxaline]: the pKi is 7.35.

On to `O=C(c1ccccc1-n1nccn1)N1CC2CN(c3nccc(-c4cccs4)n3)CC2C1` (stereo not shown) [Example 143, 2-(4-Thiophen-2-ylpyrimidin-2-yl)-5-{[2-(2H-1,2,3-triazol-2-yl)phenyl]carbonyl}octahydropyrrolo[3,4-c]pyrrole], for which the pKi was 7.09. Turning to `COc1ccc(C(=O)N2CC3CN(c4nc5ccc(F)cc5s4)CC3C2)c(OC)c1` (stereo not shown) [Example 16, 2-{5-[(2,4-Dimethoxyphenyl)carbonyl]hexahydropyrrolo[3,4-c]pyrrol-2(1H)-yl}-6-fluoro-1,3-benzothiazole], the pKi is 6.52.

These data come from patent US8653263B2 (Janssen Pharmaceutica, priority 2009, dated 2014).
